Measured values as given in patent publication US20090117563A1, “Identification of TRPML3 (MCOLN3) as a Salty Taste Receptor and Use in Assays for Identifying Taste (Salty) Modulators and/or Therapeutics that Modulate Sodium Transport, Absorption or Excretion and/or Aldosterone and/or Vasopressin Production or Release” (priority 2007, published 2009).

T1: human TRPML3 (Homo sapiens, UniProt Q8TDD5)
T1 construct: expressed in transfected cells
T1 sequence (Q8TDD5 1-553): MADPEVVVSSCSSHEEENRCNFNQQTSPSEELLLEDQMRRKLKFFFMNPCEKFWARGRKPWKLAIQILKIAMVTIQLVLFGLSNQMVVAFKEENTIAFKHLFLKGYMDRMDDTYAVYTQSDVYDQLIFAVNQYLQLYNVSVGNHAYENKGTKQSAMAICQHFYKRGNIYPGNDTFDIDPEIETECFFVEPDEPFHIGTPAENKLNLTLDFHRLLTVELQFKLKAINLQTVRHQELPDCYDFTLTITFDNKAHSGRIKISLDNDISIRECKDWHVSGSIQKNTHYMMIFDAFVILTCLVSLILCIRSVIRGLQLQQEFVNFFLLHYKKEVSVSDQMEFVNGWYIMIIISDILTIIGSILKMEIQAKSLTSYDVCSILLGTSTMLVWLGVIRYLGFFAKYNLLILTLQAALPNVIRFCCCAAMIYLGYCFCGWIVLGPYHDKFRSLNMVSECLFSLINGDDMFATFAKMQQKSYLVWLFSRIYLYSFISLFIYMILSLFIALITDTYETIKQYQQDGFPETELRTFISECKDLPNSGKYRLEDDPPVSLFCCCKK

T2: A419P TRPML3 (Homo sapiens, UniProt Q8TDD5, A419P)
T2 construct: expressed in transfected cells
T2 sequence (Q8TDD5 1-553 A419P): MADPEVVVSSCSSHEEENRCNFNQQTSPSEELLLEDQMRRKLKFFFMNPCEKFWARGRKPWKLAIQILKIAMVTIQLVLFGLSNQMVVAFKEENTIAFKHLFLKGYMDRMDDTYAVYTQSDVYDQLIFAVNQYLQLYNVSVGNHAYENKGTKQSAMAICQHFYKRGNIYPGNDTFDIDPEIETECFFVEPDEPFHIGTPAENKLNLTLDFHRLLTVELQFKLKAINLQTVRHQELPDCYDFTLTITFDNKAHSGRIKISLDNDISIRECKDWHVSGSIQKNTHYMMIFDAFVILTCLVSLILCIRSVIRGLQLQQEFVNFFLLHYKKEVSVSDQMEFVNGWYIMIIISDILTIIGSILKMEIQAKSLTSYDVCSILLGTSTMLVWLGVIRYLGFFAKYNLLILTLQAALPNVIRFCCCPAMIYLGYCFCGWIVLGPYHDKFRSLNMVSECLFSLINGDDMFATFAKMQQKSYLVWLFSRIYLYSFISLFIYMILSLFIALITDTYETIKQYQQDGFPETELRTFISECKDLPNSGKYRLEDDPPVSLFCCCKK

T3: Homo sapiens TRPML3 A419P, expressed in HEK293 cells (human, UniProt Q8TDD5 1-553)
T3 sequence: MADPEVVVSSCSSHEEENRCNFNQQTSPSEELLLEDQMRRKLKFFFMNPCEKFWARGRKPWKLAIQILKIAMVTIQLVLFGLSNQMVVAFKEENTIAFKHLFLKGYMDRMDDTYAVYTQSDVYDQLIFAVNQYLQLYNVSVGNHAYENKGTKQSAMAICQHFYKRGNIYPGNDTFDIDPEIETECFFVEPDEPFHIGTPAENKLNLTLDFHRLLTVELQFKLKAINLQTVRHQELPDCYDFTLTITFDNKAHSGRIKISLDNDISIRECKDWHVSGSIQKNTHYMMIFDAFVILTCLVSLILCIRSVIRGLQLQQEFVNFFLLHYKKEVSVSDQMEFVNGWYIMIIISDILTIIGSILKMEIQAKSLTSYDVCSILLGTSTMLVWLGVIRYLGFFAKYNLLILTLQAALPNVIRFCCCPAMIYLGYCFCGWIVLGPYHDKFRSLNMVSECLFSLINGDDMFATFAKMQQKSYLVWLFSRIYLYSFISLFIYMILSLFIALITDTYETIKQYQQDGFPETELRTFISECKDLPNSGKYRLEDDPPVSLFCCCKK


How the values were obtained:
[1] = test system: human salty taste (sodium chloride taste intensity); test: Human salty taste perception (perceived salt intensity); format: in vivo; conditions: tested at 300-fold (amiloride) and 3000-fold above IC50 values for alpha beta gamma ENaC
Excerpt: Unlike other mammals, amiloride only slightly reduces the intensity of sodium chloride taste, i.e., by about 15-20% when used at concentrations that specifically modulate ENaC function (Halpern, B. P. (1998) Neuroscience and Behavioral Reviews. 23: 5-47). […] Based thereon, it was theorized that other (ENaC genes) were involved in human salty taste perception.

human TRPML3 = molecular target: T1, human TRPML3; test: Whole cell patch clamp electrophysiology of cells expressing human TRPML3; format: cell-based
Excerpt: The whole cell voltage clamp technique is an electrophysiology method that measures the macroscopic electrical current flowing across the entire plasma membrane though protein channels. Live mammalian cells are placed in a special microscope chamber containing extracellular solution. Guided by a micromanipulator and under visual control, a small diameter glass pipette filled with an electrically conductive salt solution is first attached to the cell membrane using gentle negative pressure resulting in a high resistance gigaOhm seal. The membrane patch within the pipette is disrupted using further suction resulting in the whole cell patch clamp configuration. The whole cell patch clamp configuration allows the combined measurement of all ion channels proteins within the membrane or macroscopic current. Using the patch clamp amplifier in combination with the whole-cell patch clamp configuration allows the operator to control the voltage, or potential difference across the entire cell membrane, as well as the both the internal and external ionic composition of the cell. […]

αENaC = molecular target: T4, αENaC (Homo sapiens, UniProt P37088); test: FLIPR membrane potential dye assay, HEK293 cells transfected with αENaC; format: cell-based; conditions: 30 uM Amiloride; αENaC versus A419P-TRPML3 transfected cells
T4 construct: expressed in transfected cells; host or cells: HEK293, transient transfection
T4 sequence (P37088 whole entry): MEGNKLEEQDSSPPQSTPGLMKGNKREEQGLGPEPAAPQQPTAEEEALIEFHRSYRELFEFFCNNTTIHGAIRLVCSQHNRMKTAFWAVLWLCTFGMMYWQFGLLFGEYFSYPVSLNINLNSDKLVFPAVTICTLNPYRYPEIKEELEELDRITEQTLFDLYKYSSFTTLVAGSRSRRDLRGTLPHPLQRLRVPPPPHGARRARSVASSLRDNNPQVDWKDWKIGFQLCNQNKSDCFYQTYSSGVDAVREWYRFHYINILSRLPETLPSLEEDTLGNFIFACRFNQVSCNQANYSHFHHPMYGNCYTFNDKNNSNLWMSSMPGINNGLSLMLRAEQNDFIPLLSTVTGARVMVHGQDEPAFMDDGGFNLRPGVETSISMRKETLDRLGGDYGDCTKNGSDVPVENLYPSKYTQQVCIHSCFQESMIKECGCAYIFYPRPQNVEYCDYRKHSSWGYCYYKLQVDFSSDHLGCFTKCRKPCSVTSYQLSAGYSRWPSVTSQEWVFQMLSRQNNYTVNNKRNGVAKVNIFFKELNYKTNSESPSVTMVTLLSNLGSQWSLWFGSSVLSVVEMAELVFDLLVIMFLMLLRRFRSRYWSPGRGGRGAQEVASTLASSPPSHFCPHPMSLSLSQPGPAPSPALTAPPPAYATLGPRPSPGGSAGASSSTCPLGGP
Procedure: (§1) HEK293 cells were transiently transfected with RFP, αENaC or A419P-TRPML3 and were loaded with a membrane potential dye (R-8034; Molecular Devices) in HBSS at room temperature for 30 minutes. Membrane potential (fluorescent signal) was monitored on a FLIPR system (Molecular Devices).
(§2) HEK293 cells were transiently transfected with RFP, A419P-TRPML3 or αENaC plasmid and were loaded with a membrane potential dye (R-8034; Molecular Devices) in HBSS at room temperature for 30 minutes. HBSS (control), 3 mM gadolinium and 30 uM Amiloride were added to the cells and resulting changes in membrane potential (fluorescent signal) was monitored on a FLIPR system (Molecular Devices).

[2] = test system: human salty taste (sodium chloride taste intensity); conditions: concentrations that specifically modulate ENaC function; cited from earlier work
A419P TRPML3 = molecular target: T2, A419P TRPML3; test: FLIPR membrane potential dye assay, HEK293 cells expressing A419P-TRPML3; format: cell-based; conditions: amiloride
Excerpt: Specific cell-based assays for the discovery of TRPML3 modulators were developed which that could ultimately be used in food and beverages to modulate saltiness perception. A419P-TRPML3 function was monitored in HEK293 cells transiently transfected or transduced with the gene encoding A419P-TRPML3 and using specific membrane potential dyes (FMPs; Molecular Devices).
as §1
HEK293 cells were transiently transfected with RFP or A419P-TRPML3 and were loaded with a membrane potential dye (R-8034; Molecular Devices) in HBSS at room temperature for 30 minutes. Membrane potential (fluorescent signal) was monitored on a FLIPR system (Molecular Devices).
HEK293 cells were transiently transfected with RFP or A419P-TRPML3 and were loaded with a membrane potential dye (R-8034; Molecular Devices) in HBSS at room temperature for 30 minutes. HBSS, NMDG and increasing concentrations of gadolinium were added to the cells and resulting changes in membrane potential (fluorescent signal) was monitored on a FLIPR system (Molecular Devices).
as §2

[3] = molecular target: T3, Homo sapiens TRPML3 A419P, expressed in …; test: cell-based or functional assay

Molecule | effect on perceived human salt intensity [1] | block of TRPML3 sodium conductance (current-voltage curves) (human TRPML3; 30 uM amiloride) | block of TRPML3 (human TRPML3; no concentration given) | effect on basal fluorescence counts, specificity (αENaC) | reduction of the intensity of sodium chloride taste [2] | effect on the increased basal fluorescence elicited by A419P-TRPML3 (A419P TRPML3) | inward currents, whole cell patch clamp, HEK293 cells coexpressing A419P (0.5 ug) and WT (1.5 ug) TRPML3 cDNAs [3]
N=C(N)NC(=O)c1nc(Cl)c(N)nc1N [amiloride] | did not elicit a significant effect | not blocked | not blocked | preferentially reduces basal fluorescence counts | 15-20% | no effect | –
NC(=Nc1ccccc1)NC(=O)c1nc(Cl)c(N)nc1N [phenamil] | did not elicit a significant effect | – | – | – | – | – | –
Homo sapiens TRPML3 (NM_018298), wild-type, non codon optimized cDNA, expressed in HEK293 cells (other) MADPEVVVSSCSSHEEENRCNFNQQTSPSEELLLEDQMRRKLKFFFMNPCEKFWARGRKPWKLAIQILKIAMVTIQLVLFGLSNQMVVAFKEENTIAFKHLFLKGYMDRMDDTYAVYTQSDVYDQLIFAVNQYLQLYNVSVGNHAYENKGTKQSAMAICQHFYKRGNIYPGNDTFDIDPEIETECFFVEPDEPFHIGTPAENKLNLTLDFHRLLTVELQFKLKAINLQTVRHQELPDCYDFTLTITFDNKAHSGRIKISLDNDISIRECKDWHVSGSIQKNTHYMMIFDAFVILTCLVSLILCIRSVIRGLQLQQEFVNFFLLHYKKEVSVSDQMEFVNGWYIMIIISDILTIIGSILKMEIQAKSLTSYDVCSILLGTSTMLVWLGVIRYLGFFAKYNLLILTLQAALPNVIRFCCCAAMIYLGYCFCGWIVLGPYHDKFRSLNMVSECLFSLINGDDMFATFAKMQQKSYLVWLFSRIYLYSFISLFIYMILSLFIALITDTYETIKQYQQDGFPETELRTFISECKDLPNSGKYRLEDDPPVSLFCCCKK | – | – | – | – | – | – | 2 fold against A419P cDNA alone
